Results from US20260108447A1, “RESIDENT-SKIN-FLORA-IMPROVING AGENT AND EXTERNAL-USE COMPOSITION FOR SKIN” (NIHON SHOKUHIN KAKO CO., LTD., priority 2022, published 2026).

Legend:
Test in all cases: Change in bacteria count (bacterial turbidity OD660) when the sugar is added to the culture medium
Assay type in all cases: cell-based
[1] = test system: Staphylococcus epidermidis (JCM20345); settings: 24 hours
Procedure: (§1) An investigation was conducted in regard to a change in bacteria count when the α-gluco-oligosaccharide or the β-gluco-oligosaccharide prepared as described above was added to a culture medium and culturing was carried out in culturing of the various bacteria indicated in table 3 as resident skin bacteria under respectively suitable culture conditions.
(§2) Specifically, the various bacteria were cultured overnight using respectively suitable culture media to prepare preculture solutions, and the α-gluco-oligosaccharide or the β-gluco-oligosaccharide prepared as described above was added to 3 mL of fresh culture media so as to reach a final concentration of 0.5 (w/v) %, whereupon 0.03 ml of the preculture liquids was mixed thereinto and cultured for 24 hours, and the bacterial turbidity (OD660) after culturing was measured. Additionally, glucose was added as a sugar to a culture medium and similar tests were performed to arrive at a comparative control. The results were expressed as relative values (percentage relative to non-sugar-added group), where 100% indicated the bacterial turbidity when sterilized ultrapure water was added instead of any sugar.
Specifically, the effect for promoting proliferation of S. epidermidis was evaluated in the same manner as in test example 1, except that sophorose, laminaribiose, or gentiobiose prepared at high purity as described above was used as the sugar to be added to the culture medium, and the amount of the sugar added to the culture medium was set to 0.3 (w/v) % or 0.5 (w/v) % in terms of the final concentration.
The effect for promoting proliferation of S. epidermidis was evaluated in the same manner as in test example 2, except that sophorose prepared at high purity as described above was used as the β-gluco-oligosaccharide composed of disaccharides, and the amount of the sophorose added to the culture medium was set to 0.1 (w/v) % or 1.0 (w/v) % in terms of the final concentration.

[2] = test system: Staphylococcus hominis (JCM31912); settings: 24 hours; for effect for promoting proliferation: test example 5, FIG. 5, sentence names no bacterium, taken as S. hominis; for proliferation of S. hominis, relative value (percentage relative to non-sugar-added group): test example 4, OD660, FIG. 4
Procedure: as §1, §2
(§3) The effect for promoting proliferation of S. hominis, S. aureus, C. acnes, C. xerosis, or M. luteus was evaluated in the same manner as in test example 1, except that sophorose prepared at high purity as described above was used as the β-gluco-oligosaccharide composed of disaccharides, and the amount of the sophorose added to the culture medium was set to 0.1 (w/v) %, 0.5 (w/v) %, or 1.0 (w/v) % in terms of final concentration.
(§4) The effect for promoting proliferation of S. hominis, S. aureus, C. acnes, C. xerosis, or M. luteus was evaluated in the same manner as in test example 1, except that laminaribiose and gentiobiose prepared at high purity as described above, as well as commercially available cellobiose (Nacalai Tesque, Inc.), were used as the β-gluco-oligosaccharide composed of disaccharides, and the amount of the β-gluco-oligosaccharide added to the culture medium was set to 0.5 (w/v) % in terms of final concentration.

[3] = test system: Micrococcus luteus (JCM1464); settings: 24 hours; for proliferation of M. luteus, relative value (percentage relative to non-sugar-added group): test example 5, final concentration 0.5 (w/v) %, OD660, FIG. 5
Procedure: as §1, §2, §3, §4

[4] = test system: Staphylococcus aureus (ATCC6538); settings: 24 hours
Procedure: as §1, §2, §3, §4

[5] = test system: Cutibacterium acnes (JCM6425); settings: test example 4; at any of 0.1, 0.5, 1.0 (w/v) %, 24 hours; FIG. 4
Procedure: as §1, §2, §3, §4

[6] = test system: Corynebacterium xerosis (JCM1971); settings: test example 4; at any of 0.1, 0.5, 1.0 (w/v) %, 24 hours; FIG. 4
Procedure: as §1, §2, §3, §4

[7] = test example 2, high-purity sugar 0.3 (w/v) % or 0.5 (w/v) % final concentration, FIG. 2
[8] = final concentration 0.5 (w/v) %
[9] = test example 4, at any of 0.1, 0.5, 1.0 (w/v) %, FIG. 4

| Compound | effect for promoting proliferation of S. epidermidis [1, 7] | effect for promoting proliferation [2, 8] | proliferation of M. luteus, relative value (percentage relative to non-sugar-added group) [3] [%] | proliferation of S. aureus, relative value (percentage relative to non-sugar-added group) ([4]; test example 5, final concentration 0.5 (w/v) %, OD660, FIG. 5) [%] | effect for promoting proliferation of S. epidermidis ([1]; test example 3, final concentration 0.1 (w/v) %, FIG. 3) | effect for promoting proliferation of S. epidermidis, compared with 0.5 (w/v) % of test example 2 ([1]; test example 3, final concentration 1.0 (w/v) %, FIG. 3) | effect for promoting proliferation of C. acnes relative to the control [5] | proliferation of S. hominis, relative value (percentage relative to non-sugar-added group) [2, 8] [%] | proliferation of S. hominis, relative value (percentage relative to non-sugar-added group) ([2]; final concentration 1.0 (w/v) %) [%] | effect for promoting proliferation of C. xerosis relative to the control [6] | effect for promoting proliferation of M. luteus relative to the control [3, 9] | effect for promoting proliferation of S. aureus relative to the control [4, 9] |
| --- | --- | --- | --- | --- | --- | --- | --- | --- | --- | --- | --- | --- |
| gentiobiose | did not exhibit an effect for promoting proliferation | not confirmed to yield an effect for promoting proliferation | 121.9 | – | – | – | – | – | – | – | – | – |
| O=C[C@H](O)[C@@H](O)[C@H](O[C@@H]1O[C@H](CO)[C@@H](O)[C@H](O)[C@H]1O)[C@H](O)CO [cellobiose] | – | not confirmed to yield an effect for promoting proliferation | 111.7 | – | – | – | – | – | – | – | – | – |
| OC[C@H]1O[C@@H](O[C@H]2[C@H](O)[C@@H](CO)OC(O)[C@@H]2O)[C@H](O)[C@@H](O)[C@@H]1O (some centres unmarked) [laminaribiose, reference compound] | did not exhibit an effect for promoting proliferation | not confirmed to yield an effect for promoting proliferation | – | 108.5 | – | – | – | – | – | – | – | – |
| O=C[C@H](O[C@@H]1O[C@H](CO)[C@@H](O)[C@H](O)[C@H]1O)[C@@H](O)[C@H](O)[C@H](O)CO [sophorose, 2-O-β-D-glucopyranosyl-D-glucose] | prominent effect for promoting proliferation | – | – | – | exhibit the effect for promoting proliferation | no great difference was observed | no effect for promoting proliferation | 118.0 | 118.8 | no effect for promoting proliferation | no effect for promoting proliferation | no effect for promoting proliferation |
